pIC50: −log10 of the molar value.
Tests used:
[1] = target: T1, recombinant Val122Ile TTR (Homo sapiens, UniProt P02766, V142I); experiment: Mechano-enzymatic fibrillogenesis, TTR amyloid by ThT emission fluorescence; assay type: biochemical; settings: equimolar ligand, 96 h pellets, normalized to 100 % without ligand, mean (SD)
T1 construct: the non-covalently associated protomers, of mass 13,761, each contain 127 residues; His6 (N); TEV cleavage site (N); made in house; host or cells: E. coli BL21 (DE3)
Description: (§1) Briefly, fibrillogenesis of recombinant Val122Ile TTR at 0.5 mg/ml (9 μM) in PBS, pH 7.4 was carried out in glass vials stirred at 1,400 rpm (IKA magnetic stirrer) and 37° C. in the presence and in the absence of trypsin (5 ng/μl). […] Each ligand was tested at 4 different concentrations (4.5, 9, 18, 36 μM respectively) corresponding to the following drug/TTR molar ratios of 0.5:1, 1:1, 2:1 and 4:1. Several dilutions of the drug stock solutions were made in order to add the same volume of DMSO to each sample. Control samples without drug were added with the same volume of DMSO only. To allow complete binding of ligand by TTR each sample was incubated for 30 min at 37° C. before addition of trypsin. Spectrophotometric turbidity at 400 nm was used to monitor fibril formation over time until it reached a plateau at 96 h. Aggregation of TTR in the presence of equimolar ligand concentrations was quantified as spectrophotometric turbidity at 400 nm as a proportion of 100% for aggregation of the protein in the absence of ligands (Table 2).
At the end of the 96 h aggregation, pellets were harvested from each protein sample by 20 min centrifugation at 11,600 g, thoroughly rinsed with PBS to remove non-bound ligand, resuspended with 100 μl PBS, pH 7.4 containing 10 μM ThT in Costar 96-well black-wall plates. Bottom fluorescence values (excitation 440 nm, emission 480 nm) were recorded using a BMG LABTECH FLUostar Omega plate reader. Each value was normalized to the ThT signal of the TTR sample without ligand (Table 2)

[2] = target: T2, TTR in whole human plasma (Homo sapiens, UniProt P02766); experiment: Displacement of 125I-T4 from TTR in normal human plasma; assay type: binding; settings: wild type TTR, 30 min 37° C. with ligand, immunoprecipitation, mean of at least 3 replicates; for pIC50: read-out: D50 plasma
T2 construct: TTR in whole plasma, from individuals homozygous for wild type TTR; from tissue; host or cells: whole human plasma
Description: 3.2 Displacement of ^125-T4 from TTR in Normal Human Plasma.
The displacement of ^125I-T4 from TTR in whole plasma, from individuals homozygous for wild type TTR, was studied by incubating plasma with each ligand at increasing concentrations for 30 min at 37° C., further incubation with […] followed by measurement of the radioactivity in the immunoprecipitate obtained with anti-TTR antibodies. […] Percentage binding was plotted against the logarithm of the inhibitor concentration, and D50 (concentration of ligand reducing the binding of T4 by TTR by 50%) was determined using a four parameter dose-response curve with GraphPad Prism 5 (Table 1).

isolated wild type TTR = target: T3, isolated wild type TTR (Homo sapiens, UniProt P02766); experiment: Displacement of 125I-T4 from isolated wild type TTR in buffer; settings: concentration of ligand reducing binding of 125I-T4 by TTR by 50%, 125 nM TTR, pH 8.0, overnight 4° C., mean of at least 3 replicates; for pIC50: read-out: D50 buffer
T3 construct: the non-covalently associated protomers, of mass 13,761, each contain 127 residues; His6 (N); TEV cleavage site (N); made in house; host or cells: E. coli BL21 (DE3)
Description: 3. Evaluation of Ligand Activity Based on Capacity to Displace ^125I-Thyroxine (T4) from TTR in Buffer/Human Plasma 3.1 Displacement of ^125I-T4 from Isolated Wild Type TR.
Competition of ligands with T4 for binding by TTR was assayed quantitatively by a previously described procedure (Kolstoe et al., 2010). Briefly, a solution of 125 nM TTR in 0.1 M Tris-HCl, 0.1 M NaCl and 0.001 M EDTA buffer, pH 8.0, was incubated overnight at 4° C. in the presence of 1.07 nM ^125I T4 (1,200 μCi/μg, 200 μCi/ml, Perkin Elmer) and increasing concentrations of inhibitor (0-5 μM) in 40 μl final volume. ^125I T4 bound by TTR was separated from unbound T4 by gel filtration chromatography using Micro Bio Spin 6 columns (Bio-Rad) previously equilibrated with the reaction buffer containing 1% w/v BSA. After counting with a Wizard2 gamma counter (Perkin-Elmer) for 60 s, percentage binding was plotted against the logarithm of the inhibitor concentration, and D50 (concentration of ligand reducing the binding of T4 by TTR by 50%) was determined using a four parameters dose-response curve with GraphPad Prism 5 (Table 1).

[3] = target: T1, recombinant Val122Ile TTR; experiment: Mechano-enzymatic fibrillogenesis, TTR aggregation by turbidity at 400 nm; assay type: biochemical; settings: equimolar ligand, Val122Ile TTR 9 μM, trypsin, 96 h; 100 % = protein without ligand; mean (SD)
Description: as §1

SMILES | % Aggregation (Fluorescence method) [1] | pIC50 [2] | pIC50 (isolated wild type TTR) | % Aggregation (Turbidity method) [3] | D50 plasma [2] | D50 buffer (isolated wild type TTR)
O=C(O)CCc1ccc(OCC[C@@H](O)[C@H](O)CCOc2ccc(Nc3ccccc3C(=O)O)cc2Cl)c(Cl)c1 [Compound B22, 2-[4-[(3R,4R)-6-[4-(2-carboxyethyl)-2-chloro-phenoxy]-3,4-dihydroxy-hexoxy]-3-chloro-anilino]benzoic acid] | 15.5 (3.25) % | 5.19 | 7.15 | 6.43 (2.12) % | – | –
Cc1n[nH]c(COCCOCCCOc2c(Cl)cc(CCC(=O)O)cc2Cl)c1CCCOc1cc(C(=O)O)ccc1F [Compound B11, 3-[3-[5-[2-[3-[4-(2-carboxyethyl)-2,6-dichloro-phenoxy]propoxy]ethoxymethyl]-3-methyl-1H-pyrazol-4-yl]propoxy]-4-fluoro-benzoic acid] | – | – | 6.30 | – | no binding | –
O=C(O)CCc1cc(Cl)c(OCC[C@H](O)[C@@H](O)CCOc2c(Cl)cc(Nc3ccccc3C(=O)O)cc2Cl)c(Cl)c1 [Compound B4, 2-[4-[(3S,4S)-6-[4-(2-carboxyethyl)-2,6-dichloro-phenoxy]-3,4-dihydroxy-hexoxy]-3,5-dichloro-anilino]benzoic acid] | 4.74 (2.93) % | 5.36 | 7.15 | 3.52 (1.14) % | – | –
O=C(O)CCc1ccc(OCC[C@@H](O)[C@H](O)CCOc2c(Cl)cc(Nc3ccccc3C(=O)O)cc2Cl)c(Cl)c1 [Compound B21, 2-[4-[6-[4-(2-carboxyethyl)-2-chloro-phenoxy]-3,4-dihydroxy-hexoxy]-3,5-dichloro-anilino]benzoic acid] | 8.31 (6.09) % | 5.39 | 7.15 | 6.43 (3.09) % | – | –
O=C(O)CCc1ccc(OCCCOCCCOc2c(Cl)cc(-c3nc4ccc(C(=O)O)cc4o3)cc2Cl)c(Cl)c1 [Compound B19, 2-[4-[3-[3-[4-(2-carboxyethyl)-2-chloro-phenoxy]propoxy]propoxy]-3,5-dichloro-phenyl]-1,3-benzoxazole-6-carboxylic acid] | 7.27 (1.17) % | < 4.00 | 6.80 | 3.99 (0.928) % | – | –
O=C(O)CCc1cc(Cl)c(OCC[C@@H](O)[C@H](O)CCOc2ccc(Nc3ccccc3C(=O)O)cc2Cl)c(Cl)c1 [Compound B20, 2-[4-[(3R,4R)-6-[4-(2-carboxyethyl)-2,6-dichloro-phenoxy]-3,4-dihydroxy-hexoxy]-3-chloro-anilino]benzoic acid] | 8.54 (6.10) % | 5.15 | 7.15 | 11.6 (8.30) % | – | –
O=C(O)COCCOCCOCCOc1c(Cl)cc(Nc2ccccc2C(=O)O)cc1Cl [Compound B5, 2-[4-[2-[2-[2-(carboxymethoxy)ethoxy]ethoxy]ethoxy]-3,5-dichloro-anilino]benzoic acid] | 28.8 (13.4) % | 4.18 | 5.34 | 17.3 (14.8) % | – | –
O=C(O)CCc1ccc(OCCCOCCCOc2ccc(-c3nc4ccc(C(=O)O)cc4o3)cc2Cl)c(Cl)c1 [Compound B18, 2-[4-[3-[3-[4-(2-carboxyethyl)-2-chloro-phenoxy]propoxy]propoxy]-3-chloro-phenyl]-1,3-benzoxazole-6-carboxylic acid] | 2.45 (1.39) % | < 4.00 | 6.68 | 3.31 (0.68) % | – | –

Second part, the compound after the results:

% Aggregation (Fluorescence method) [1] | pIC50 [2] | pIC50 (isolated wild type TTR) | % Aggregation (Turbidity method) [3] | D50 plasma [2] | D50 buffer (isolated wild type TTR) | SMILES
11.7 (3.67) % | – | 5.69 | 6.35 (2.73) % | no binding | – | O=C(O)CCc1cc(Cl)c(OCOCCCOc2c(Cl)cc(Nc3ccccc3C(=O)O)cc2Cl)c(Cl)c1 [Compound B8, 2-[4-[3-[[4-(2-carboxyethyl)-2,6-dichloro-phenoxy]methoxy]propoxy]-3,5-dichloro-anilino]benzoic acid]
3.30 (1.19) % | 5.64 | 7.18 | 4.99 (0.46) % | – | – | O=C(O)CCc1cc(Cl)c(OCC[C@@H](O)[C@H](O)CCOc2c(Cl)cc(Nc3ccccc3C(=O)O)cc2Cl)c(Cl)c1 [Compound B4A, 2-[4-[(3R,4R)-6-[4-(2-carboxyethyl)-2,6-dichloro-phenoxy]-3,4-dihydroxy-hexoxy]-3,5-dichloro-anilino]benzoicacid]
8.23 (2.61) % | 4.74 | 7.00 | 4.99 (1.88) % | – | – | O=C(O)CCc1cc(Cl)c(OCCCOCCCOc2c(Cl)cc(-c3nc4ccc(C(=O)O)cc4o3)cc2Cl)c(Cl)c1 [Compound B7, 2-[4-[3-[3-[4-(2-carboxyethyl)-2,6-dichloro-phenoxy]propoxy]propoxy]-3,5-dichloro-phenyl]-1,3-benzoxazole-6-carboxylicacid]
12.7 (5.73) % | 4.21 | 7.00 | 5.56 (0.75) % | – | – | O=C(O)CCc1cc(Cl)c(OCCCOCCCOc2ccc(-c3nc4ccc(C(=O)O)cc4o3)cc2Cl)c(Cl)c1 [Compound B15, 2-[4-[3-[3-[4-(2-carboxyethyl)-2,6-dichloro-phenoxy]propoxy]propoxy]-3-chlorophenyl]-1,3-benzoxazole-6-carboxylic acid]
75 (30) % | – | – | – | – | No binding | O=C(O)Cc1cc(Cl)c(OCCCOCCOc2c(Cl)cc(CC(=O)O)cc2Cl)c(Cl)c1 [Compound B33, reference compound]
8.63 (5.17) % | – | – | 5.76 (2.32) % | – | – | O=C(O)CCc1cc(Cl)c(OCC[C@H](O)[C@@H](O)CCOc2c(Cl)cc(Nc3ncccc3C(=O)O)cc2Cl)c(Cl)c1 (stereo in doubt) [Compound B3A, 2-[4-[(3S,4S)-6-[4-(2-carboxyethyl)-2,6-dichloro-phenoxy]-3,4-dihydroxy-hexoxy]-3,5-dichloro-anilino]pyridine-3-carboxylicacid]
9.76 (4.50) % | – | – | 5.31 (0.62) % | – | – | O=C(O)CCc1cc(Cl)c(OCC/C=C/CCOc2c(Cl)cc(Nc3ncccc3C(=O)O)cc2Cl)c(Cl)c1 [Compound B13, (E)-2-((4-((6-(4-(2-carboxyethyl)-2,6-dichlorophenoxy)hex-3-en-1-yl)oxy)-3,5-dichlorophenyl)amino)nicotinic acid]
12.6 (3.17) % | – | – | 5.73 (0.50) % | – | – | O=C(O)CCc1cc(Cl)c(OCC/C=C/CCOc2c(Cl)cc(Nc3ccccc3C(=O)O)cc2Cl)c(Cl)c1 [Compound B14, 2-[4-[(E)-6-[4-(2-carboxyethyl)-2,6-dichloro-phenoxy]hex-3-enoxy]-3,5-dichloro-anilino]benzoic acid]

Source: patent US20230357134A1, “AGENTS FOR USE IN THE TREATMENT OF AMYLOIDOSIS” (UCL BUSINESS LTD, priority 2020, published 2023)
